Values of other authors, collected in patent publication US20210205417A1, “PH 7 INJECTABLE SOLUTION COMPRISING AT LEAST ONE BASAL INSULIN OF WHICH THE PI IS FROM 5.8 TO 8.5 AND A CO-POLYAMINO ACID BEARING CARBOXYLATE CHARGES AND HYDROPHOBIC RADICALS AND A LIMITED AMOUNT OF M-CRESOL” (ADOCIA, priority 2018, published 2021).

Conditions: patients

Q: With insulin glargine as the substance, how does the “period over which the hypoglycemic effect is almost constant” value read?
A: Its value is 24 h.
